Earlier results in US8629099B2, “Ophthalmic compositions comprising a dipeptide” (Bausch & Lomb Incorporated, priority 2008, dated 2014).

Conditions: lower pKa given in text

pKa values (first value): 2.4
Structure (SMILES): NCC(=O)O [glycine]
